Measurements taken from publication PMC2996262 (Journal of medicinal chemistry, 2010).

What was measured:
wild-type viruses = experiment: Antiviral assays, range over wild-type viruses; assay type: cell-based, HIV-1; conditions: Human immunodeficiency virus 1, read-out: EC50 against wild-type viruses
MDR viruses = experiment: Antiviral assays, range over MDR viruses; assay type: cell-based, HIV-1

Compound	EC50 (wild-type viruses)	antiviral potency against the MDR HIV-1 variants, better than LPV (MDR viruses; compared with LPV)	loss of potency against MDR viruses (MDR viruses; relative to wild-type viruses)
CC(=O)c1cccc(N2C[C@@H](C(=O)N[C@@H](Cc3ccccc3)[C@H](O)CN(CC(C)C)S(=O)(=O)c3ccc4ncsc4c3)OC2=O)c1 [26d]	4.2 to 10.1 nM		
CC(C)CN(C[C@@H](O)[C@H](Cc1ccccc1)NC(=O)[C@@H]1CN(c2cccc(S(C)(=O)=O)c2)C(=O)O1)S(=O)(=O)c1ccc2ncsc2c1 [27d]	3.5 to 5.7 nM		
COC(=O)Nc1cccc(N2C[C@@H](C(=O)N[C@@H](Cc3ccccc3)[C@H](O)CN(CC(C)C)S(=O)(=O)c3ccc4ncsc4c3)OC2=O)c1 [31d]	1.2 to 3 nM	3 fold	
CC(C)CN(C[C@@H](O)[C@H](Cc1ccccc1)NC(=O)[C@@H]1CN(c2ccccc2)C(=O)O1)S(=O)(=O)c1ccc2ncsc2c1 [15d]	14 to 41 nM		about 6 fold
